Reference: patent US6962945B2, “N-aryloxypropanolyl-N′-phenethyl-urea” (Council of Scientific and Industrial Research, priority 2004, dated 2005)
“Also recorded” adds a separate entry of the source.

Tested on: adult male Sprague Dawley rats
Test: appetite suppressant activity on scheduled fed rat model of appetite
Type: in vivo
Conditions: 20 μmol/kg, by oral route; for decrease in food intake as compared to food intake in the control group: fat rich diet 3 h daily, 30 min prior to food; for change in gross behaviour: observed during the period of feeding
Experimental: The pharmacological evaluation of the test compounds of general formula 3 was carried out by the following protocol.
The appetite suppressant activity of test compounds was tested on scheduled fed rat model of appetite. The study was conducted in adult male Sprague Dawley rats, weighing 175-200 g on arrival). The animals were housed in transparent cages of Bayer Makrolon type 3118 measuring 425×266×180 with floor area 800 cm^2. In each cage one rat was kept. A special fat rich diet (Diet #12451, Research Diets, NJ, USA) was provided only for 3 h (11 am-2 pm) daily [no diet in rest of the period]. Water was provided for 24 h. Diet was weighed prior to and after observation period by an electronic [Digital display] balance. Food intake was recorded by calculating the difference between prior and after weight of diet. Rats were weighed weekly after feeding. Rats were provided 16 g of diet daily and within 12-14 days animals achieved base line food intake (12-14 g) with gain in body weight (230-250 g) indicating adaptation to scheduled feeding. Only those rats that adapted to schedule feeding were used in the study. Rat showing significant less food intake and weight gain as compared to others was excluded from the study.
Thereafter, tests compounds dissolved in 10% DMSO aqueous solution and given in dose of 20 μmol/kg, by oral route. The test compounds were administered 30 min prior to food. Each test compounds were given in 5 rats. Diet and water was weighed at hourly interval in control and compound treated rats. During the period of feeding the gross behavior of rat was also observed.
The significance of difference between the food intake of treated and control groups was determined by unpaired Student's test [Two tailed p value].

| Compound | decrease in food intake as compared to food intake in the control group | activity compared with Sibutramine | change in water intake | change in gross behaviour |
| --- | --- | --- | --- | --- |
| CC(C)CC(N(C)C)C1(c2ccc(Cl)cc2)CCC1 (centres unmarked) [Sibutramine, reference compound] | 38.57% | – | – | – |
| O=C(NCCc1ccccc1)NCC(O)COc1ccc(C(F)(F)F)cc1 (centres unmarked) [compound 3a, N-[2-hydroxy-3-(4-trifluoromethylphenoxy)propyl]-N′-2-phenethyl-urea] | 41.42% | comparable; also recorded: same activity as Sibutramine | did not cause any significant change | did not cause any significant change |
| COc1ccc(OCC(O)CNC(=O)NCCc2ccccc2)cc1 (centres unmarked) [compound 3j, N-[2-hydroxy-3-(4-methoxyphenoxy)propyl]-N′-2-phenethyl-urea] | 31.82% | – | did not cause any significant change | did not cause any significant change |
| OC(CNC(=S)NCCc1ccccc1)COc1ccc(C(F)(F)F)cc1 (centres unmarked) [compound 3n, N-[2-hydroxy-3-(4-trifluoromethylphenoxy)propyl]-N′-2-phenethyl-thiourea] | 28.4% | – | did not cause any significant change | did not cause any significant change |
